The values below come from ChEMBL document CHEMBL1145723, “Metabolic cleavage of frangufoline in rodents: in vitro and in vivo study” (J Nat Prod, 1997).

The structures appear in SMILES notation.

Data set [1] has as its system Serum. Put plainly: Metabolic stability in Sprague-Dawley rat serum assessed as formation of (S)-(N,N-dimethylphenylalanyl)-(2S,3S)-3[(p-formylphenoxyl)leucyl]-(S)-leucine) after 30 mins by HPLC. It counts as ADME, cell-free. To be noted: 0.5 h.
Data set [2] can be described thus: Metabolic stability in Sprague-Dawley rat gastric juice assessed as formation of (S)-(N,N-dimethylphenylalanyl)-(2S,3S)-3[(p-formylphenoxyl)leucyl]-(S)-leucine) after 30 mins by HPLC. To be noted: 0.5 h. Type of data set: ADME, tissue-based.
Data set [3] can be described thus: Metabolic stability in Sprague-Dawley rat intestinal fluid assessed as formation of (S)-(N,N-dimethylphenylalanyl)-(2S,3S)-3[(p-formylphenoxyl)leucyl]-(S)-leucine) after 30 mins by HPLC. It counts as ADME. The note with it: simulated gi fluid, 0.5 h.
For data set [4], the system named is Serum. Put plainly: Metabolic stability in Sprague-Dawley rat serum assessed as formation of (S)-(N,N-dimethylphenylalanyl)-(2S,3S)-3[(p-formylphenoxyl)leucyl]-(S)-leucine) after 5 mins by HPLC. It counts as ADME, cell-free.
In data set [5] the test system is Serum. In words: Metabolic stability in mouse serum assessed as formation of (S)-(N,N-dimethylphenylalanyl)-(2S,3S)-3[(p-formylphenoxyl)leucyl]-(S)-leucine) after 1 hr by HPLC. It counts as ADME, cell-free.
Data set [6] has as its system Serum. In words: Metabolic stability in human serum assessed as formation of (S)-(N,N-dimethylphenylalanyl)-(2S,3S)-3[(p-formylphenoxyl)leucyl]-(S)-leucine) after 1 hr by HPLC. It counts as ADME, cell-free.
In data set [7] the test system is Serum. In words: Metabolic stability in bovine serum assessed as formation of (S)-(N,N-dimethylphenylalanyl)-(2S,3S)-3[(p-formylphenoxyl)leucyl]-(S)-leucine) after 1 hr by HPLC. It counts as ADME, cell-free, Bos taurus. The note with it: cattle.
The subject of data set [8] is Serum. Put plainly: Metabolic stability in Sprague-Dawley rat serum assessed as formation of (S)-(N,N-dimethylphenylalanyl)-(2S,3S)-3[(p-formylphenoxyl)leucyl]-(S)-leucine) at 50 mg/kg, po after 30 mins by HPLC. Also noted: dose 50 mg/kg, route oral. To be noted: in vivo, 0.5 h. Type of data set: ADME, organism-based.
Data set [9] concerns Serum. Put plainly: Metabolic stability in Sprague-Dawley rat serum assessed as formation of (S)-(N,N-dimethylphenylalanyl)-(2S,3S)-3[(p-formylphenoxyl)leucyl]-(S)-leucine) at 25 mg/kg, po after 10 mins by HPLC. Type of data set: ADME, organism-based. Also on record: dose 25 mg/kg, route oral. The note with it: in vivo.
The test system of data set [10] is Serum. In words: Metabolic stability in Sprague-Dawley rat serum assessed as initial rate of compound cleavage at 0.10 mM after 10 mins by HPLC. To be noted: 100 µM. It counts as ADME, cell-free.
In data set [11] the test system is Serum. Put plainly: Metabolic stability in Sprague-Dawley rat serum assessed as initial rate of compound cleavage at 0.10 mM after 10 mins by HPLC in presence of 2 mM (phenylmethyl)sulfonyl fluoride. Type of data set: ADME, cell-free. The note with it: 100 µM.
For data set [12], the system named is Serum. In words: Metabolic stability in Sprague-Dawley rat serum assessed as initial rate of compound cleavage at 0.10 mM after 10 mins by HPLC in presence of 2 mM EDTA. Type of data set: ADME, cell-free. To be noted: 100 µM.
The test system of data set [13] is Serum. Put plainly: Metabolic stability in Sprague-Dawley rat serum assessed as initial rate of compound cleavage at 0.10 mM after 10 mins by HPLC in presence of 2 mM p-chloromercuribenzoic acid. It counts as ADME, cell-free. To be noted: 100 µM.
The subject of data set [14] is Serum. Put plainly: Metabolic stability in Sprague-Dawley rat serum assessed as initial rate of compound cleavage at 0.10 mM after 10 mins by HPLC in presence of 2 mM bis-(p-nitrophenyl) phosphate. Type of data set: ADME, cell-free. To be noted: 100 µM.
The subject of data set [15] is Serum. In words: Metabolic stability in Sprague-Dawley rat serum assessed as initial rate of compound cleavage at 0.10 mM after 10 mins by HPLC in presence of 2 mM eserine. It counts as ADME, cell-free. The note with it: 100 µM.
Data set [16] has as its system Serum. Put plainly: Metabolic stability in Sprague-Dawley rat serum assessed as initial rate of compound cleavage at 0.10 mM after 10 mins by HPLC in presence of 10 uM eserine. It counts as ADME, cell-free. The note with it: 100 µM.
For data set [17], the system named is Serum. In words: Metabolic stability in Sprague-Dawley rat serum up to 3 hrs. It counts as ADME, cell-free.

For `CC(C)C[C@@H]1NC(=O)[C@@H](NC(=O)[C@H](Cc2ccccc2)N(C)C)[C@H](C(C)C)Oc2ccc(cc2)CCNC1=O` [DIHYDROSANJOININE A], the Activity entry in [1] is given as “Stable”.
Turning to `CC(C)C[C@@H]1NC(=O)[C@@H](NC(=O)[C@H](Cc2ccccc2)N(C)C)[C@H](C(C)C)Oc2ccc(cc2)/C=C\NC1=O` [FRANGUFOLINE], the Stability result in data set [2] is recorded as “Stable”; in [3], “Stable”; in data set [4], “Unstable”; in [5], “Unstable”; in [6], “Stable”; in [7], “Stable”. The Stability entry in data set [8] is “Unstable”; in data set [9], “Unstable”; in data set [1], “Unstable”; in [10], 1.44 pmol/min/mg; in [11], 1.3 pmol/min/mg; in data set [12], 0.376 pmol/min/mg. Besides, the Stability is listed as 1.34 pmol/min/mg in [13]; 0.116 pmol/min/mg in data set [14]; 0.352 pmol/min/mg in data set [15]; 1.24 pmol/min/mg in data set [16]; “Stable” in data set [17].
As to `CC(C)C[C@H]1NC(=O)[C@@H](NC(=O)[C@H](Cc2ccccc2)N(C)C)[C@H](C(C)C)Oc2ccc(cc2)/C=C\NC1=O` [SANJOININE AH1], the Activity result in data set [1] is given as “Unstable”.
For the compound `CO[C@H]1CNC(=O)[C@H](CC(C)C)NC(=O)[C@@H](NC(=O)[C@H](Cc2ccccc2)N(C)C)[C@H](C(C)C)Oc2ccc1cc2` [SANJOININE D], the Activity entry in data set [1] is recorded as “Stable”.
For the compound `CC(C)C[C@@H]1NC(=O)[C@@H](NC(=O)[C@H](Cc2ccccc2)N(C)C)[C@H](C(C)C)Oc2ccc(cc2)[C@@H](O)CNC1=O` [SANJOININE G1], the Activity result in data set [1] was “Stable”.
